# In the supplement of paper PMC11208160:
# Experiment: recombinant UMI read abundance after kanamycin selection (control-corrected) (log10(CPM+1)); higher = more efficient recombination; extreme values may be limits of the assay; sequences stand for … in AGTGCAGAGAAAATCGGCCAGTTTTCTCTGCCTGCAGTCCGCATGCCGTGGGACCCCTTGGGTTCTAACCTGTTGCCTAGATTTATGCAGCGGACTGCCTTTCTCCCAAAGTGATAAACCGG…AGGTTGGTTTCACT; site = the 11-nt donor
# Procedure, shortened: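 Each donor and donor-binding-loop pair was tracked by a 12-nt UMI on a plasmid carrying a promoterless kanamycin gene. With a second plasmid supplying a fixed target and T7-inducible IS621 bridge recombinase, the pool was plated in Escherichia coli on IPTG (0.07 mM) plus kanamycin or unselected. Sequencing of recombinant UMIs across the donor–target junction gave counts expressed as log10(CPM+1) after replicate averaging and control-derived scaling.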
row,Sequence,recombinant UMI read abundance (log10)
1,CGGAATCCATGGACCGGTTTTCCCGGTAATCCGTATTTGTT (site CGGAATTCTAG),0
2,CGGAATCCATGGACCGGTTTTCCCGGTAATCCGTATTTGTT (site CGGAATTCTTA),0
3,CGGAATCCATGGACCGGTTTTCCCGGTAATCCGTATTTGTT (site CGGACCCCTAA),0.00922
4,CGGAATCCATGGACCGGTTTTCCCGGTAATCCGTATTTGTT (site CGGACTCCTAA),0.00741
5,CGGAATCCATGGACCGGTTTTCCCGGTAATCCGTATTTGTT (site CGGACTCCTAC),0.00516
6,CGGAATCCATGGACCGGTTTTCCCGGTAATCCGTATTTGTT (site CGGACTCCTCA),0.00467
7,CGGAATCCATGGACCGGTTTTCCCGGTAATCCGTATTTGTT (site CGGACTGCTAA),0.0124
8,CGGAATCCATGGACCGGTTTTCCCGGTAATCCGTATTTGTT (site CGGAGGCCTAA),0.012
9,CGGAATCCATGGACCGGTTTTCCCGGTAATCCGTATTTGTT (site CGGAGTACTAA),0.00934
10,CGGAATCCATGGACCGGTTTTCCCGGTAATCCGTATTTGTT (site CGGAGTCCTAA),0.00217
11,CGGAATCCATGGACCGGTTTTCCCGGTAATCCGTATTTGTT (site CGGAGTCCTAT),0
12,CGGAATCCATGGACCGGTTTTCCCGGTAATCCGTATTTGTT (site CGGAGTCCTGA),0
13,CGGAATCCATGGACCGGTTTTCCCGGTAATCCGTATTTGTT (site CGGATACCTAA),0.0155
14,CGGAATCCATGGACCGGTTTTCCCGGTAATCCGTATTTGTT (site CGGATTCCTAA),0.0126
15,CGGAATCCATGGACCGGTTTTCCCGGTAATCCGTATTTGTT (site CGGATTCCTAG),0
16,CGGAATCCATGGACCGGTTTTCCCGGTAATCCGTATTTGTT (site CGGATTCCTTA),0
17,CGGAATCCATGGACCGGTTTTCCCGGTAATCCGTATTTGTT (site CGGATTTCTAA),0
18,CGGAATCCATGGACCGGTTTTCCCGGTAATCCGTATTTGTT (site CGGCACCCTAA),0.0425
19,CGGAATCCATGGACCGGTTTTCCCGGTAATCCGTATTTGTT (site CGGCATCCTAA),0.0145
20,CGGAATCCATGGACCGGTTTTCCCGGTAATCCGTATTTGTT (site CGGCATCCTAC),0.011
21,CGGAATCCATGGACCGGTTTTCCCGGTAATCCGTATTTGTT (site CGGCATCCTCA),0.00889
22,CGGAATCCATGGACCGGTTTTCCCGGTAATCCGTATTTGTT (site CGGCATGCTAA),0.0214
23,CGGAATCCATGGACCGGTTTTCCCGGTAATCCGTATTTGTT (site CGGCCTCCTAA),0
24,CGGAATCCATGGACCGGTTTTCCCGGTAATCCGTATTTGTT (site CGGGAACCTAA),0.00313
25,CGGAATCCATGGACCGGTTTTCCCGGTAATCCGTATTTGTT (site CGGGATCCTAA),0.0888

row,Sequence,recombinant UMI read abundance (log10)
1,CGGAATCCATGGACCGGTTTTCCCGGTAATCCGTATTTGTT (site CGGGATCCTAG),0
2,CGGAATCCATGGACCGGTTTTCCCGGTAATCCGTATTTGTT (site CGGGATCCTTA),0.00923
3,CGGAATCCATGGACCGGTTTTCCCGGTAATCCGTATTTGTT (site CGGGATTCTAA),0
4,CGGAATCCATGGACCGGTTTTCCCGGTAATCCGTATTTGTT (site CGGGTTCCTAA),0.0107
5,CGGAATCCATGGACCGGTTTTCCCGGTAATCCGTATTTGTT (site CGGTAGCCTAA),0.0806
6,CGGAATCCATGGACCGGTTTTCCCGGTAATCCGTATTTGTT (site CGGTATACTAA),0.0163
7,CGGAATCCATGGACCGGTTTTCCCGGTAATCCGTATTTGTT (site CGGTATCCTAA),0.107
8,CGGAATCCATGGACCGGTTTTCCCGGTAATCCGTATTTGTT (site CGGTATCCTAT),0
9,CGGAATCCATGGACCGGTTTTCCCGGTAATCCGTATTTGTT (site CGGTATCCTGA),0
10,CGGAATCCATGGACCGGTTTTCCCGGTAATCCGTATTTGTT (site CGGTGTCCTAA),0.0136
11,CGGAATCCATGGACCGGTTTTCCCGGTAATCCGTATTTGTT (site CGTAAGCCTAA),0.0106
12,CGGAATCCATGGACCGGTTTTCCCGGTAATCCGTATTTGTT (site CGTAATACTAA),0.00407
13,CGGAATCCATGGACCGGTTTTCCCGGTAATCCGTATTTGTT (site CGTAATCCTAA),0.0103
14,CGGAATCCATGGACCGGTTTTCCCGGTAATCCGTATTTGTT (site CGTAATCCTAT),0
15,CGGAATCCATGGACCGGTTTTCCCGGTAATCCGTATTTGTT (site CGTAATCCTGA),0
16,CGGAATCCATGGACCGGTTTTCCCGGTAATCCGTATTTGTT (site CGTAGTCCTAA),0.00941
17,CGGAATCCATGGACCGGTTTTCCCGGTAATCCGTATTTGTT (site CGTTATCCTAA),0.00294
18,CGGAATCCATGGACCGGTTTTCCCGGTAATCCGTATTTGTT (site CTCAATCCTAA),0
19,CGGAATCCATGGACCGGTTTTCCCGGTAATCCGTATTTGTT (site CTGAACCCTAA),0.0207
20,CGGAATCCATGGACCGGTTTTCCCGGTAATCCGTATTTGTT (site CTGAATCCTAA),0.0031
21,CGGAATCCATGGACCGGTTTTCCCGGTAATCCGTATTTGTT (site CTGAATCCTAC),0
22,CGGAATCCATGGACCGGTTTTCCCGGTAATCCGTATTTGTT (site CTGAATCCTCA),0.0195
23,CGGAATCCATGGACCGGTTTTCCCGGTAATCCGTATTTGTT (site CTGAATGCTAA),0.00589
24,CGGAATCCATGGACCGGTTTTCCCGGTAATCCGTATTTGTT (site CTGACTCCTAA),0.00378
25,CGGAATCCATGGACCGGTTTTCCCGGTAATCCGTATTTGTT (site CTGCATCCTAA),0.0146

row,Sequence,recombinant UMI read abundance (log10)
1,CGGAATCCATGGACCGGTTTTCCCGGTAATCCGTATTTGTT (site GAGAATCCTAA),0.00637
2,CGGAATCCATGGACCGGTTTTCCCGGTAATCCGTATTTGTT (site GGGAAGCCTAA),0.0234
3,CGGAATCCATGGACCGGTTTTCCCGGTAATCCGTATTTGTT (site GGGAATACTAA),0
4,CGGAATCCATGGACCGGTTTTCCCGGTAATCCGTATTTGTT (site GGGAATCCTAA),0
5,CGGAATCCATGGACCGGTTTTCCCGGTAATCCGTATTTGTT (site GGGAATCCTAT),0
6,CGGAATCCATGGACCGGTTTTCCCGGTAATCCGTATTTGTT (site GGGAATCCTGA),0
7,CGGAATCCATGGACCGGTTTTCCCGGTAATCCGTATTTGTT (site GGGAGTCCTAA),0.00491
8,CGGAATCCATGGACCGGTTTTCCCGGTAATCCGTATTTGTT (site GGGTATCCTAA),0
9,CGGAATCCATGGACCGGTTTTCCCGGTAATCCGTATTTGTT (site GGTAATCCTAA),0
10,CGGAATCCATGGACCGGTTTTCCCGGTAATCCGTATTTGTT (site TGCAATCCTAA),0.0105
11,CGGAATCCATGGACCGGTTTTCCCGGTAATCCGTATTTGTT (site TGGAACCCTAA),0.0136
12,CGGAATCCATGGACCGGTTTTCCCGGTAATCCGTATTTGTT (site TGGAATCCTAA),0
13,CGGAATCCATGGACCGGTTTTCCCGGTAATCCGTATTTGTT (site TGGAATCCTAC),0
14,CGGAATCCATGGACCGGTTTTCCCGGTAATCCGTATTTGTT (site TGGAATCCTCA),0.00675
15,CGGAATCCATGGACCGGTTTTCCCGGTAATCCGTATTTGTT (site TGGAATGCTAA),0.00525
16,CGGAATCCATGGACCGGTTTTCCCGGTAATCCGTATTTGTT (site TGGACTCCTAA),0.027
17,CGGAATCCATGGACCGGTTTTCCCGGTAATCCGTATTTGTT (site TGGCATCCTAA),0.00352
18,CGGAATCCATGGACCGGTTTTCCCGGTAATCCGTATTTGTT (site TTGAATCCTAA),0.00378
19,CGGAATGCATGGACCGGTTTTCCCGGTAATCCGTATTTGCA (site CGGAATGCTTG),2.28
20,CGGAATGCATGGACCGGTTTTCCCGGTAATCCGTATTTGTG (site CGGAATCCTAA),0
21,CGGAATGCATGGACCGGTTTTCCCGGTAATCCGTATTTGTG (site CGGAATGCTCA),2.58
22,CGGACTCCATGGACCGGTTTTCCCGGTAATCCGTATTTGTT (site CGGAATCCTAA),0.00938
23,CGGACTCCATGGACCGGTTTTCCCGGTAATCCGTATTTGTT (site CGGACTCCTAA),1.58
24,CGGACTCCATGGACCGGTTTTCCCGGTAATCCGTATTTGTT (site CGGAGTCCTAA),0.00177
25,CGGACTCCATGGACCGGTTTTCCCGGTAATCCGTATTTGTT (site CGGATTCCTAA),0.00394
